{"source": "patent US20220402925A1", "about": "“COMPOUNDS AND METHODS FOR THE TREATMENT OF CYSTIC FIBROSIS” (Flatley Discovery Lab, LLC, priority 2019, published 2022)", "data": [{"target": "T1, F508del CFTR (Homo sapiens, UniProt P13569, DEL508-508)", "T1 construct": "Primary CF airway epithelial cells were obtained from the UNC Cystic Fibrosis Tissue Procurement and Cell Culture Core; host or cells: primary CF airway epithelial cells", "T1 sequence (P13569 with tags, fused parts or gaps DEL508-508)": "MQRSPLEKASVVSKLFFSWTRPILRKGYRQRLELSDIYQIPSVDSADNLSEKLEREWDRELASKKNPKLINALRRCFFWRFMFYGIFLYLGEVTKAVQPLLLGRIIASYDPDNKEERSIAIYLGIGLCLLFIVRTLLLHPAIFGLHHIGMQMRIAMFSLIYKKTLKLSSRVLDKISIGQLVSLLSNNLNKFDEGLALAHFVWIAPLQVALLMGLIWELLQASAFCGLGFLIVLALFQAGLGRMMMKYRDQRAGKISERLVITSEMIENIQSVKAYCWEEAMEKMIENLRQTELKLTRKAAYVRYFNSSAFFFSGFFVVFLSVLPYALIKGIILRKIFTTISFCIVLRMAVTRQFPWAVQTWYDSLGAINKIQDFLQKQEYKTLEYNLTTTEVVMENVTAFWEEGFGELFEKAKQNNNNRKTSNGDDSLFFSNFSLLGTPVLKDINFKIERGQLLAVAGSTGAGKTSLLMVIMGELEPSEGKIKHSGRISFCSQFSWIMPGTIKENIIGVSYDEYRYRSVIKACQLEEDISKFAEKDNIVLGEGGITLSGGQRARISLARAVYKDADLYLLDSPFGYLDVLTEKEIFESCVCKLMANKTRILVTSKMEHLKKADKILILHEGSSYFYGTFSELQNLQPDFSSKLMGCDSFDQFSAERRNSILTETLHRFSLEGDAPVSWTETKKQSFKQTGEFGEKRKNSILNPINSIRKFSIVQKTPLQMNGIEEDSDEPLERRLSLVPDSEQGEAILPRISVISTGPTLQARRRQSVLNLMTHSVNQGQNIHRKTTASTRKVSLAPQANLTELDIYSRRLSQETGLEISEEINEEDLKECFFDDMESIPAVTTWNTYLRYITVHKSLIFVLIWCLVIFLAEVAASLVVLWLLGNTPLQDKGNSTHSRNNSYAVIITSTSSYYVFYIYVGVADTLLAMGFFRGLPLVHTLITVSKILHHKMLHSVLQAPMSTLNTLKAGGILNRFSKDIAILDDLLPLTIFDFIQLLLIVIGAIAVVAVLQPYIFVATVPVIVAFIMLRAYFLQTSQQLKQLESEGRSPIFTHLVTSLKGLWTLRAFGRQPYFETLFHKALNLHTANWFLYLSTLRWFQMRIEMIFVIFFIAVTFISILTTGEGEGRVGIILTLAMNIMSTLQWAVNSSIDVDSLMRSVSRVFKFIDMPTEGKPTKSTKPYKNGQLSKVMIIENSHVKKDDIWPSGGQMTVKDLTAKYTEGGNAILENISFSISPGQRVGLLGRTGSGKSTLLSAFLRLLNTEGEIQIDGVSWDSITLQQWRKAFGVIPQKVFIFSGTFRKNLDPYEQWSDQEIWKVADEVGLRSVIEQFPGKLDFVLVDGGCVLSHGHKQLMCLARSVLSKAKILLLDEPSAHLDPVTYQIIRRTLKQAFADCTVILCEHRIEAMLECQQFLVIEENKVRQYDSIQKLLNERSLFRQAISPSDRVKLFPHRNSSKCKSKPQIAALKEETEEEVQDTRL", "assay": "Equivalent current assay in primary CF airway epithelial cells (Corrector Activity, NAUC normalized to 3 μM VX809)", "type": "cell-based", "conditions": "NAUC as % of positive control (VX-809)", "experimental": "Primary CF airway epithelial cells were obtained from the UNC Cystic Fibrosis Tissue Procurement and Cell Culture Core. The cells are grown at 37° C. in a Heracell 150i incubator using growth media (BEGM, Fischer). Cells were then transferred to differentiation media (airway liquid interface media (ALI) media; Lechner J F and LaVeck M A, J. Tissue Culture Methods 1985, 9: 43-48) for a minimum of 4 weeks on coated Costar transwells. Two days before the assay the mucus on the apical surface of the cells was aspirated after incubating with 200 μL of differentiation media for at least thirty (30) minutes. One day before the assay test compounds were added to the basolateral surface of the cells at various test concentrations dissolved in DMSO. Duplicate wells were prepared giving a n=4 or n=6 protocol.\nCells were treated for 24 hours with various combinations and concentrations of the test articles, reference standard (3 μM VX809, positive control). Compounds stock solutions were prepared in DMSO and diluted 1/1000 into ALI media to their final assay concentration. Cells were treated with combination solutions (2 mL of each dilution) and incubated at 37° C. for 24 h.\nFor the equivalent current assay, cells on six Transwell (24-well) plates were treated. Each Transwell plate was filled with 200 μl of HBS on the apical surface and 2 ml on the basolateral surface. Plates were placed horizontally in a heated mount at 37° C. and equilibrated for 30 minutes. Resting current was measured for 15 min and then blocked by the apical addition of 5 μM benzamil. After 20 min, CFTR activator (10 μM forskolin) and potentiator (either 1 μM VX-770 or 3 μM FDL176) were added to both the apical and basolateral side to stimulate CFTR. An increase in chloride current is seen as an upward deflection of the trace. After another 60 min, CFTR-172 (a CFTR inhibitor, 20 μM) and/or bumetanide (20 uM) was added to block CFTR mediated chloride current.\nThe raw data, voltage vs. time and resistance vs. time for the equivalent current assay (sampling interval: 6 minutes) were transferred to Excel (Microsoft Office Professional, version 14.0.7106.5003) for analysis. CFTR specific current was computed from I=V/R (Ohms Law), the average amplitude of the increase in current elicited upon addition forskolin and ending upon addition of the CFTR channel specific blocker CFTR-172. This average is equivalent to the sum of the average forskolin activated and the average VX770-potentiated currents. The average current measured in vehicle (0.1% DMSO) treated cells, IV, was subtracted from the current for the test article, ITA, or from the corrector reference standard VX809 (3 uM, ISTD). For replicate measurements, the averaged vehicle subtracted response for the test article, was normalized to the averaged vehicle subtracted response of the reference corrector VX809 (3 μM).\nINSC=(ITA−IV)(ave)/(ISTD−IV)(ave) (Equation 1)\nA second endpoint, for the equivalent current assay, evaluated was NAUC, the normalized area under the curve (AUC) measuring the response after addition of forskolin and potentiator to the time point right before the addition of the CFTR inhibitor. The AUC is effectively the average response multiplied by the duration of the response. The AUC of the test article, AUCTA was then corrected by subtracting the average vehicle response, AUCV,ave over the same time range, and normalized as for the inhibitor-sensitive current to the difference of the corrector reference standard VX809 (3 μM VX809r,ave and the vehicle response:\nNAUCTA=[AUCTA−AUCV,ave]/[AUCVx809r,ave−AUCV,ave] (Equation 2).\nThe normalized value for DMSO is 0.0 and for VX-809 alone is 1.0 for both of these equations.\nExperiments were run with a minimum of n=4 replicates per concentration. Since the distribution for the ratio of two normal distributions is a Cauchy distribution, the median value must be used for the average and the average deviation must be used for the error of all normalized data. […]", "values": [{"smiles": "CCN(C(=O)Cn1nc(-c2cccc(OC(C)(C)C)c2)c2oc(C(=O)NC(C)(C)C)cc2c1=O)c1ccc2c(c1)OC(F)(F)O2", "note": "[Example 122]", "Corr Activity (NAUC)": "++ (NAUC 70-40% of positive control)"}, {"smiles": "O=C(Cn1nc(-c2cc(F)cc(OCC(F)(F)F)c2)c2[nH]cnc2c1=O)N(c1ccc2c(c1)OC(F)(F)O2)C1CC1", "note": "[Example 393]", "Corr Activity (NAUC)": "++ (NAUC 70-40% of positive control)"}, {"smiles": "CCN(C(=O)Cn1nc(-c2cc(C)cc(C#N)c2)c2oc(C(=O)NC(C)(C)C)cc2c1=O)c1cc2c(cc1C)OC(F)(F)O2", "note": "[Example 133]", "Corr Activity (NAUC)": "+++ (NAUC>70% of positive control)"}, {"smiles": "CCN(C(=O)Cn1nc(-c2cc(F)cc(OC)c2)c2occc2c1=O)c1ccc2c(c1)OC(F)(F)O2", "note": "[Example 47]", "Corr Activity (NAUC)": "+++ (NAUC>70% of positive control)"}, {"smiles": "CCN(C(=O)Cn1nc(-c2cccc(F)c2)c2[nH]ncc2c1=O)c1ccc2c(c1)OC(F)(F)O2", "note": "[Example 499]", "Corr Activity (NAUC)": "+ (NAUC<40% of positive control)"}, {"smiles": "CN(C(=O)Cn1nc(-c2cc(F)cc(F)c2)c2occc2c1=O)c1ccc2c(c1)OC(F)(F)O2", "note": "[Example 41]", "Corr Activity (NAUC)": "+++ (NAUC>70% of positive control)"}, {"smiles": "CCN(C(=O)Cn1nc(-c2cccc(C#N)c2)c2oc(C3CC3)cc2c1=O)c1ccc2c(c1)OC(F)(F)O2", "note": "[Example 231]", "Corr Activity (NAUC)": "+++ (NAUC>70% of positive control)"}, {"smiles": "CCN(C(=O)Cn1nc(-c2ccc3c(c2)C(C)(C)c2ccccc2-3)c2[nH]cnc2c1=O)c1ccc2c(c1)OC(F)(F)O2", "note": "[Example 293]", "Corr Activity (NAUC)": "+ (NAUC<40% of positive control)"}, {"smiles": "CCN(C(=O)Cn1nc(-c2cc(SC)cc(C(F)(F)F)c2)c2[nH]cnc2c1=O)c1ccc2c(c1)OC(F)(F)O2", "note": "[Example 271]", "Corr Activity (NAUC)": "+ (NAUC<40% of positive control)"}, {"smiles": "CCN(C(=O)Cn1nc(-c2cccc(OC(F)(F)F)c2)c2oc(C(=O)NC(C)(C)C)cc2c1=O)c1ccc2c(c1)OC(F)(F)O2", "note": "[Example 124]", "Corr Activity (NAUC)": "++ (NAUC 70-40% of positive control)"}, {"smiles": "CCN(C(=O)Cn1nc(-c2ccc(OCC3CC3)c(Cl)c2)c2[nH]cnc2c1=O)c1ccc2c(c1)OC(F)(F)O2", "note": "[Example 347]", "Corr Activity (NAUC)": "+++ (NAUC>70% of positive control)"}, {"smiles": "CCN(C(=O)Cn1nc(-c2cc(C)cc(C#N)c2)c2occc2c1=O)c1cc2c(cc1C)OC(F)(F)O2", "note": "[Example 164]", "Corr Activity (NAUC)": "+++ (NAUC>70% of positive control)"}, {"smiles": "CCN(C(=O)Cn1nc(-c2cc(C)cc(Cl)c2)c2occc2c1=O)c1ccc2c(c1)OC(F)(F)O2", "note": "[Example 79]", "Corr Activity (NAUC)": "+++ (NAUC>70% of positive control)"}, {"smiles": "CCN(C(=O)Cn1nc(-c2cc(C)cc(C#N)c2)c2oc(C(=O)NC(C)(C)C(F)(F)F)cc2c1=O)c1ccc2c(c1)OC(F)(F)O2", "note": "[Example 150]", "Corr Activity (NAUC)": "+++ (NAUC>70% of positive control)"}, {"smiles": "CCN(C(=O)Cn1nc(-c2cc(F)cc(C#N)c2)c2oc(C(F)F)cc2c1=O)c1ccc2c(c1)OC(F)(F)O2", "note": "[Example 191]", "Corr Activity (NAUC)": "+++ (NAUC>70% of positive control)"}, {"smiles": "CCN(C(=O)Cn1nc(-c2cc(C)cc(F)c2)c2occc2c1=O)c1ccc2c(c1)OC(F)(F)O2", "note": "[Example 83]", "Corr Activity (NAUC)": "+++ (NAUC>70% of positive control)"}, {"smiles": "CN(C(=O)Cn1nc(-c2cccc(C#N)c2)c2oc(C3CC3)cc2c1=O)c1ccc2c(c1)OC(F)(F)O2", "note": "[Example 220]", "Corr Activity (NAUC)": "++ (NAUC 70-40% of positive control)"}, {"smiles": "CCN(C(=O)Cn1nc(-c2cc(F)cc(Cl)c2)c2oc(C3CC3)cc2c1=O)c1ccc2c(c1)OC(F)(F)O2", "note": "[Example 223]", "Corr Activity (NAUC)": "+++ (NAUC>70% of positive control)"}, {"smiles": "N#Cc1cc(-c2nn(CC(=O)N(c3ccc4c(c3)OC(F)(F)O4)C3CC3)c(=O)c3nc[nH]c23)ccc1Cl", "note": "[Example 445]", "Corr Activity (NAUC)": "+++ (NAUC>70% of positive control)"}, {"smiles": "CCN(C(=O)Cn1nc(-c2ccc(OC)c(S(=O)(=O)N3CCCC3)c2)c2[nH]cnc2c1=O)c1ccc2c(c1)OC(F)(F)O2", "note": "[Example 350]", "Corr Activity (NAUC)": "+ (NAUC<40% of positive control)"}, {"smiles": "Cc1nc2ccc(N(C)C(=O)Cn3nc(-c4cccc(F)c4)c4sc(C)nc4c3=O)cc2o1", "note": "[Example 19]", "Corr Activity (NAUC)": "+++ (NAUC>70% of positive control)"}, {"smiles": "CCN(C(=O)Cn1nc(-c2ccc(Cl)c(C#N)c2)c2[nH]cnc2c1=O)c1ccc2c(c1)OC(F)(F)O2", "note": "[Example 325]", "Corr Activity (NAUC)": "+++ (NAUC>70% of positive control)"}, {"smiles": "CCN(C(=O)Cn1nc(-c2cccc(C#N)c2)c2occc2c1=O)c1ccc(C(F)(F)F)cc1", "note": "[Example 61]", "Corr Activity (NAUC)": "+ (NAUC<40% of positive control)"}, {"smiles": "CCN(C(=O)Cn1nc(-c2cc(Cl)cc(C#N)c2)c2oc(C(=O)NC(C)(C)C)cc2c1=O)c1ccc2c(c1C)OC(F)(F)O2", "note": "[Example 142]", "Corr Activity (NAUC)": "++ (NAUC 70-40% of positive control)"}, {"smiles": "COc1cc(-c2nn(CC(=O)N(c3ccc4c(c3)OC(F)(F)O4)C3CC3)c(=O)c3nc[nH]c23)cc(C(F)(F)F)c1", "note": "[Example 387]", "Corr Activity (NAUC)": "+ (NAUC<40% of positive control)"}, {"smiles": "Cc1cc(F)cc(-c2nn(CC(=O)N(c3ccc4c(c3)OC(F)(F)O4)C3CC3)c(=O)c3nc[nH]c23)c1", "note": "[Example 385]", "Corr Activity (NAUC)": "++ (NAUC 70-40% of positive control)"}, {"smiles": "CCN(C(=O)Cn1nc(-c2cc(C(F)(F)F)cc(C(F)(F)F)c2)c2[nH]cnc2c1=O)c1ccc2c(c1)OC(F)(F)O2", "note": "[Example 260]", "Corr Activity (NAUC)": "+ (NAUC<40% of positive control)"}, {"smiles": "CCc1c(N(CC)C(=O)Cn2nc(-c3cccc(C#N)c3)c3occc3c2=O)ccc2c1OC(F)(F)O2", "note": "[Example 55]", "Corr Activity (NAUC)": "+++ (NAUC>70% of positive control)"}, {"smiles": "CN(C(=O)Cn1nc(-c2cccc(Cl)c2)c2oc(C(F)F)cc2c1=O)c1ccc2c(c1)OC(F)(F)O2", "note": "[Example 185]", "Corr Activity (NAUC)": "+++ (NAUC>70% of positive control)"}, {"smiles": "CN(C(=O)Cn1nc(-c2cccc(Cl)c2)c2oc(C(C)(C)O)cc2c1=O)c1ccc2c(c1)OC(F)(F)O2", "note": "[Example 184, 2-(7-(3-chlorophenyl)-2-(2-hydroxypropan-2-yl)-4-oxofuro[2,3-d]pyridazin-5(4H)-yl)-N-(2,2-difluorobenzo[d][1,3]dioxol-5-yl)-N-methylacetamide]", "Corr Activity (NAUC)": "+++ (NAUC>70% of positive control)"}, {"smiles": "N#Cc1cc(-c2nn(CC(=O)N(c3ccc4c(c3)OC(F)(F)O4)C3CC3)c(=O)c3nc[nH]c23)ccc1OC(F)(F)F", "note": "[Example 483]", "Corr Activity (NAUC)": "++ (NAUC 70-40% of positive control)"}, {"smiles": "CCN(C(=O)Cn1nc(-c2ccc(O)c(Cl)c2)c2[nH]cnc2c1=O)c1ccc2c(c1)OC(F)(F)O2", "note": "[Example 327]", "Corr Activity (NAUC)": "+ (NAUC<40% of positive control)"}, {"smiles": "CCN(C(=O)Cn1nc(-c2cc(Cl)cc(OC)c2)c2[nH]cnc2c1=O)c1ccc2c(c1)OC(F)(F)O2", "note": "[Example 257]", "Corr Activity (NAUC)": "+++ (NAUC>70% of positive control)"}, {"smiles": "Cc1nc2ccc(N(C)C(=O)Cn3nc(-c4cccc(Cl)c4)c4sc(C)nc4c3=O)cc2o1", "note": "[Example 20]", "Corr Activity (NAUC)": "+++ (NAUC>70% of positive control)"}, {"smiles": "Cc1cc2c(cc1N(C)C(=O)Cn1nc(-c3cc(C#N)cc(C(F)F)c3)c3oc(C(=O)NC(C)(C)C)cc3c1=O)OC(F)(F)O2", "note": "[Example 145]", "Corr Activity (NAUC)": "++ (NAUC 70-40% of positive control)"}, {"smiles": "CCOC(=O)c1ccc(-c2nn(CC(=O)N(CC)c3ccc4c(c3)OC(F)(F)O4)c(=O)c3ccoc23)cc1C#N", "note": "[Example 96]", "Corr Activity (NAUC)": "+++ (NAUC>70% of positive control)"}]}]}
